Results on 33 compounds are retold here after patent US20150126530A1, “Novel Substituted Imidazopyrimidines as Gpbar1 Receptor Modulators” (Torrent Pharmaceuticals Limited., priority 2011, published 2015).

A value given as a limit tells only on which side of the number the result lay.

This test deals with T1, human TGR5 (Homo sapiens, UniProt Q8TDU6).
T1 construct: host or cells: CHO cells (ATCC)
T1 sequence (Q8TDU6 1-330): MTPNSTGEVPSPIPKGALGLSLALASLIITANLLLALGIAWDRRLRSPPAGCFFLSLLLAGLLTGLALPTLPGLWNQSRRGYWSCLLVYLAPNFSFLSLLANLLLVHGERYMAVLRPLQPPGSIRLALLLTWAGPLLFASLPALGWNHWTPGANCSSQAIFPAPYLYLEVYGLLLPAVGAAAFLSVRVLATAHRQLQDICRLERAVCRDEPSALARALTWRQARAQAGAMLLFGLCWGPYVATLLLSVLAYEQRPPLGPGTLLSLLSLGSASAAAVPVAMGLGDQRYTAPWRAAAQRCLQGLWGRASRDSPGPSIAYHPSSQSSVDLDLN
The test is described as follows: cAMP Responsive Element (CRE)-Reporter Assay. To be noted: luciferase activity relative to vehicle control, five hours, CHO cells transfected with human TGR5 and CRE-luciferase. The class given is cell-based. As for the experimental part: (A) cAMP Responsive Element (CRE)-Reporter Assay:
CHO cells (ATCC) were transfected with human TGR5 (oriGene) and CRE-luciferase reporter vector. Transfected cells were treated with vehicle control or test compounds (Conc 10 μM) for five hours and then lysed. Cell lysates were monitored for luciferase acivity. Increase in luciferase activity is considered as a result of TGR5 activation. Results were expressed as fold induction as compared to vehicle control.
Results are summarized in Table 2 where, + indicates 1.5-2 fold while ++, +++, ++++ indicate 2-3 fold, 3-4 fold, and >4 fold induction respectively relative to vehicle control when tested at 10 μM concentration.
(In general: Reporter assays use an easily measured gene product as a stand-in for the process of interest.)
On to `COc1ccc(-c2nc3ncccn3c2C(=O)N(C)c2ccc(F)c(Cl)c2)cc1F` [compound 45, N-(3-chloro-4-fluorophenyl)-2-(3-fluoro-4-methoxyphenyl)-N-methylimidazo[1,2-a]pyrimidine-3-carboxamide], for which the fold induction – broadly, the ratio of treated to control signal – at 10 µM is greater than 4. `CN(C(=O)c1c(-c2ccc(S(=O)(=O)N(C)C)cc2)nc2ncccn12)c1ccc(F)cc1` [compound 38, 2-[4-(dimethylsulfamoyl)phenyl]-N-(4-fluorophenyl)-N-methylimidazo[1,2-a]pyrimidine-3-carboxamide]: the fold induction at 10 µM fell in the range of 1.5 to 2. `COc1ccc(-c2nc3ncccn3c2C(=O)N(C)c2ccc(Cl)cc2)cc1OC` [compound 10, N-(4-chlorophenyl)-2-(3,4-dimethoxyphenyl)-N-methylimidazo[1,2-a]pyrimidine-3-carboxamide] displayed a fold induction at 10 µM of 3 to 4. For `CN(C(=O)c1c(-c2ccccc2)nc2ncc(-c3ccccc3)cn12)c1ccc(Cl)cc1` [compound 12, N-(4-chlorophenyl)-N-methyl-2,6-diphenylimidazo[1,2-a]pyrimidine-3-carboxamide] the value was 2 to 3; for `O=C(Nc1ccc(Cl)cc1)c1c(-c2ccc(F)cc2)nc2ncccn12` [compound 32, N-(4-chlorophenyl)-2-(4-fluorophenyl)imidazo[1,2-a]pyrimidine-3-carboxamide], 1.5 to 2; for `CN(C(=O)c1c(-c2ccc(-c3ccccc3)cc2)nc2ncccn12)c1ccc2c(c1)CCC2` [compound 9, 2-(biphenyl-4-yl)-N-(2,3-dihydro-1H-inden-5-yl)-N-methylimidazo[1,2-a]pyrimidine-3-carboxamide], 2 to 3. For `COc1ccc(-c2nc3ncccn3c2C(=O)N(C)c2ccc(F)cc2F)cc1F` [compound 43, N-(2,4-difluorophenyl)-2-(3-fluoro-4-methoxyphenyl)-N-methylimidazo[1,2-a]pyrimidine-3-carboxamide] the value was 1.5 to 2; for `CN(C(=O)c1c(-c2ccc3c(c2)OCO3)nc2ncccn12)c1ccc(Cl)cc1` [compound 29, 2-(1,3-benzodioxol-5-yl)-N-(4-chlorophenyl)-N-methylimidazo[1,2-a]pyrimidine-3-carboxamide], 3 to 4; for `CN(C(=O)c1c(Oc2ccccc2)nc2ncccn12)c1ccc(Cl)cc1` [compound 47, N-(4-chlorophenyl)-N-methyl-2-phenoxyimidazo[1,2-a]pyrimidine-3-carboxamide], 3 to 4. In turn, `CN(C(=O)c1c(-c2ccccc2C(F)(F)F)nc2ncccn12)c1ccc(Cl)cc1` [compound 23, N-(4-chlorophenyl)-N-methyl-2-[2-(trifluoromethyl)phenyl]imidazo[1,2-a]pyrimidine-3-carboxamide] returned a fold induction at 10 µM of 3 to 4.

Compound `CN(C(=O)c1c(-c2ccc(Cl)c(Cl)c2)nc2ncccn12)c1ccc(Cl)cc1` [compound 14, N-(4-chlorophenyl)-2-(3,4-dichlorophenyl)-N-methylimidazo[1,2-a]pyrimidine-3-carboxamide] gave a fold induction at 10 µM of 3 to 4. `CN(C(=O)c1c(Oc2ccc(F)cc2)nc2ncccn12)c1ccc(F)cc1F` [Compound no. 46, N-(2,4-difluorophenyl)-2-(4-fluorophenoxy)-N-methylimidazo[1,2-a]pyrimidine-3-carboxamide] had a fold induction at 10 µM of 2 to 3. For `CN(C(=O)c1c(Oc2ccc(Cl)cc2)nc2ncccn12)c1ccc(F)cc1` [compound 51, 2-(4-chlorophenoxy)-N-(4-fluorophenyl)-N-methylimidazo[1,2-a]pyrimidine-3-carboxamide] the value was 2 to 3; for `COc1ccc(-c2nc3ncccn3c2C(=O)N(C)c2ccc3c(c2)CCC3)cc1OC` [compound 13, N-(2,3-dihydro-1H-inden-5-yl)-2-(3,4-dimethoxyphenyl)-N-methylimidazo[1,2-a]pyrimidine-3-carboxamide], 3 to 4. As to `COc1ccc(N(C)C(=O)c2c(-c3ccc(Cl)cc3)nc3ncccn23)cc1OC` [compound 19, 2-(4-chlorophenyl)-N-(3,4-dimethoxyphenyl)-N-methylimidazo[1,2-a]pyrimidine-3-carboxamide], the fold induction at 10 µM lay within 2 to 3. Regarding `CN(C(=O)c1c(-c2ccc(Cl)cc2)nc2ncccn12)c1ccc2c(c1)CCC2` [Compound no. 4, 2-(4-chlorophenyl)-N-(2,3-dihydro-1H-inden-5-yl)-N-methylimidazo[1,2-a]pyrimidine-3-carboxamide], the fold induction at 10 µM lay within 3 to 4. For `CN(C(=O)c1c(-c2ccc(F)cc2)nc2ncccn12)c1ccc2c(c1)CCC2` [Compound no. 6, N-(2,3-dihydro-1H-inden-5-yl)-2-(4-fluorophenyl)-N-methylimidazo[1,2-a]pyrimidine-3-carboxamide] the value was 3 to 4; for `COc1ccc(-c2nc3ncccn3c2C(=O)N(C)c2ccc(F)cc2)cc1F` [compound 41, 2-(3-fluoro-4-methoxyphenyl)-N-(4-fluorophenyl)-N-methylimidazo[1,2-a]pyrimidine-3-carboxamide], 2 to 3; for `CN(C(=O)c1c(-c2ccccn2)nc2ncccn12)c1ccc(Cl)cc1` [Compound no. 11, N-(4-chlorophenyl)-N-methyl-2-(pyridin-2-yl)imidazo[1,2-a]pyrimidine-3-carboxamide], 1.5 to 2. The compound `CN(C(=O)c1c(-c2ccccn2)nc2ncccn12)c1ccc2c(c1)CCC2` [compound 17, N-(2,3-dihydro-1H-inden-5-yl)-N-methyl-2-(pyridin-2-yl)imidazo[1,2-a]pyrimidine-3-carboxamide] showed a fold induction at 10 µM of 2 to 3. In the case of `CN(C(=O)c1c(-c2ccc(Cl)cc2)nc2ncccn12)c1ccc(Cl)cc1` [Compound no. 5, N,2-bis(4-chlorophenyl)-N-methylimidazo[1,2-a]pyrimidine-3-carboxamide], the fold induction at 10 µM was greater than 4. Consider `CN(C(=O)c1c(-c2ccc(Cl)cc2)nc2ncccn12)c1ccc(S(=O)(=O)N(C)C)cc1` [compound 24, 2-(4-chlorophenyl)-N-[4-(dimethylsulfamoyl)phenyl]-N-methylimidazo[1,2-a]pyrimidine-3-carboxamide], for which the fold induction at 10 µM lay within 2 to 3. In the case of `CN(C(=O)c1c(-c2cccc(C(F)(F)F)c2)nc2ncccn12)c1ccc(Cl)cc1` [compound 31, N-(4-chlorophenyl)-N-methyl-2-[3-(trifluoromethyl)phenyl]imidazo[1,2-a]pyrimidine-3-carboxamide], the fold induction at 10 µM was 3 to 4. Take `COc1ccc(Oc2nc3ncccn3c2C(=O)N(C)c2ccc(Cl)cc2)cc1` [compound 49, N-(4-chlorophenyl)-2-(4-methoxyphenoxy)-N-methylimidazo[1,2-a]pyrimidine-3-carboxamide]: the fold induction at 10 µM lay in the range of 3 to 4. Then `COc1ccc(N(C)C(=O)c2c(Oc3ccc(F)cc3)nc3ncccn23)cc1` [compound 52, 2-(4-fluorophenoxy)-N-(4-methoxyphenyl)-N-methylimidazo[1,2-a]pyrimidine-3-carboxamide], with 3 to 4; and `CN(C(=O)c1c(-c2cccc(C#N)c2)nc2ncccn12)c1ccc(F)cc1` [compound 35, 2-(3-cyanophenyl)-N-(4-fluorophenyl)-N-methylimidazo[1,2-a]pyrimidine-3-carboxamide], with 2 to 3.

Compound `CN(C(=O)c1c(-c2ccc(Cl)cc2Cl)nc2ncccn12)c1ccc(F)cc1` [compound 21, 2-(2,4-dichlorophenyl)-N-(4-fluorophenyl)-N-methylimidazo[1,2-a]pyrimidine-3-carboxamide] yielded a fold induction at 10 µM of 3 to 4. The compound `CN(C(=O)c1c(-c2ccc(O)c(O)c2)nc2ncccn12)c1ccc2c(c1)CCC2` [compound 15, N-(2,3-dihydro-1H-inden-5-yl)-2-(3,4-dihydroxyphenyl)-N-methylimidazo[1,2-a]pyrimidine-3-carboxamide] yielded a fold induction at 10 µM of 2 to 3. As to `CN(C(=O)c1c(-c2ccc(Cl)cc2)nc2ncccn12)c1ccc(O)c(O)c1` [compound 27, 2-(4-chlorophenyl)-N-(3,4-dihydroxyphenyl)-N-methylimidazo[1,2-a]pyrimidine-3-carboxamide], the fold induction at 10 µM was in the range of 1.5 to 2. Regarding `CN(C(=O)c1c(-c2cccnc2)nc2ncccn12)c1ccc(Cl)cc1` [compound 20, N-(4-chlorophenyl)-N-methyl-2-(pyridin-3-yl)imidazo[1,2-a]pyrimidine-3-carboxamide], the fold induction at 10 µM lay within 2 to 3. The compound `CN(C(=O)c1c(-c2ccccc2)nc2ncccn12)c1ccc(F)cc1` [compound 26, N-(4-fluorophenyl)-N-methyl-2-phenylimidazo[1,2-a]pyrimidine-3-carboxamide] had a fold induction at 10 µM of 2 to 3. For `O=C(c1c(-c2ccc(F)cc2)nc2ncccn12)N(c1ccc(Cl)cc1)C1CC1` [compound 136, N-(4-chlorophenyl)-N-cyclopropyl-2-(4-fluorophenyl)imidazo[1,2-a]pyrimidine-3-carboxamide] the value was 3 to 4; for `O=C(Nc1ccc(F)cc1F)c1c(-c2ccc(F)cc2)nc2ncccn12` [compound 39, N-(2,4-difluorophenyl)-2-(4-fluorophenyl)imidazo[1,2-a]pyrimidine-3-carboxamide], 1.5 to 2.
